Laboratory results from ChEMBL document CHEMBL5584285, “Advancements in Protein Degradation for Cancer Therapy” (ACS Med Chem Lett, 2024).

Key:
GTPase KRas = GTPase KRas (Homo sapiens, UniProt P01116, G12V); experiment: Induction of KRAS G12V mutant degradation in human SW1990 cells incubated for 24 hrs; assay type: cell-based
[1] = Binding affinity to 6His-tagged KRAS G12V mutant /GST-tagged RAF1 (unknown origin) incubated for 60 mins by fluorescence based microplate reader assay; parameters: species or system Homo sapiens

GTPase KRas, sequence (P01116 whole entry G12V): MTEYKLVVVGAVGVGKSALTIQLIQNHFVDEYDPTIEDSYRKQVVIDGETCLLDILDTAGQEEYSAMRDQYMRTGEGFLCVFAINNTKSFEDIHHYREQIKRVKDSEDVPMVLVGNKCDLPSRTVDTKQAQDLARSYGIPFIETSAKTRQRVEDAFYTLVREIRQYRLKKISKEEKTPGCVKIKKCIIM

Compound | DC50 (GTPase KRas) [nM] | IC50 [1] [nM]
CCc1c(F)ccc2cc(O)cc(-c3ncc4c(N5CCC[C@@](C)(O)C5)nc(OCC5(CN6CCC(C)(CN7CC8(CCN(c9ccc%10c(c9)CN([C@H]9CCC(=O)NC9=O)C%10=O)CC8)C7)CC6)CC5)nc4c3F)c12 | ≤ 1 | ≤ 20
CCc1c(F)ccc2cc(O)cc(-c3ncc4c(N5CCC[C@@](C)(O)C5)nc(OCC5(CN6CCC7(CC6)CC(N6CCN(c8ccc9c(c8)CN([C@H]8CCC(=O)NC8=O)C9=O)CC6)C7)CC5)nc4c3F)c12 | ≤ 1 | ≤ 20
CCc1c(F)ccc2cc(O)cc(-c3ncc4c(N5CCC[C@]6(CCO6)C5)nc(OCC5(CN6CCC(CN7CCN(c8ccc9c(c8)CN([C@H]8CCC(=O)NC8=O)C9=O)CC7)CC6)CC5)nc4c3F)c12 | 1 | 20

Other lines, results leading:

DC50 (GTPase KRas) [nM] | IC50 [1] [nM] | Compound
≤ 1 | ≤ 20 | CCc1c(F)ccc2cc(O)cc(-c3ncc4c(N5CCC[C@@](C)(O)C5)nc(OCC5(CN6CCC(OC7CCN(C8CCN(c9ccc%10c(c9)CN(C9CCC(=O)NC9=O)C%10=O)CC8)CC7)CC6)CC5)nc4c3F)c12 (some centres not stated)
≤ 1 | ≤ 20 | CCc1c(F)ccc2cc(O)cc(-c3ncc4c(N5CCC[C@@](C)(O)C5)nc(OCC5(CN6CC(N7CCC(N8CCN(c9ccc%10c(c9)CN([C@H]9CCC(=O)NC9=O)C%10=O)CC8)CC7)C6)CC5)nc4c3F)c12
≤ 1 | 20 | CCc1cccc2cc(O)cc(-c3ncc4c(N5CCC[C@@](C)(O)C5)nc(OCC5(CN6CCC(OC7CCN(c8ccc9c(c8)CN(C8CCC(=O)NC8=O)C9=O)CC7)CC6)CC5)nc4c3F)c12 (some centres not stated)
